# According to ChEMBL document CHEMBL1130691, “Acceptor substrate-based selective inhibition of galactosyltransferases” (Bioorg Med Chem Lett, 1998):
# How the values were obtained:
# [1] = target: T1, N-acetyllactosaminide alpha-1,3-galactosyltransferase (Sus scrofa, UniProt P50127); assay: Compound was tested for the inhibition porcine alpha -1,3 -galactosyl transferase (alpha-1,3-GalT); No inhibition
# [2] = target: T2, Beta-1,4-galactosyltransferase 1 (Bos taurus, UniProt P08037); assay: Compound was tested for the inhibition recombinant bovine beta -1,4 -galactosyl transferase (beta-1,4-GalT)
# T2 sequence (P08037 whole entry): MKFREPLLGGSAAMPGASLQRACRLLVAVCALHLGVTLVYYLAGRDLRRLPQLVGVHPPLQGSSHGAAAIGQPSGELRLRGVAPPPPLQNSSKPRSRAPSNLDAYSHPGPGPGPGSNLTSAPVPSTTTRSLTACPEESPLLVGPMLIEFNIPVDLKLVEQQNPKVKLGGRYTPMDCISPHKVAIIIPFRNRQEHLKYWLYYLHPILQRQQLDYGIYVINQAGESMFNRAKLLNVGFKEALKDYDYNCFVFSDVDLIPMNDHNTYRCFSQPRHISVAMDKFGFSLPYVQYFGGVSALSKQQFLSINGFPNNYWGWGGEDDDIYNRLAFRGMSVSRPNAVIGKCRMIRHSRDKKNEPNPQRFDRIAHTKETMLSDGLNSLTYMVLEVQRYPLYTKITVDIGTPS
# [3] = target: T2, Beta-1,4-galactosyltransferase 1; assay: Compound was tested for the inhibition recombinant bovine beta -1,4 -galactosyl transferase (beta-1,4-GalT); No inhibition
# [4] = target: T1, N-acetyllactosaminide alpha-1,3-galactosyltransferase; assay: Compound was tested for the inhibition porcine alpha -1,3 -galactosyl transferase (alpha-1,3-GalT)
# [5] = target: T1, N-acetyllactosaminide alpha-1,3-galactosyltransferase; assay: Compound was tested for the inhibition porcine alpha -1,3 -galactosyl transferase (alpha-1,3-GalT) at 0.2 mM concentration
# T1 sequence (P50127 whole entry): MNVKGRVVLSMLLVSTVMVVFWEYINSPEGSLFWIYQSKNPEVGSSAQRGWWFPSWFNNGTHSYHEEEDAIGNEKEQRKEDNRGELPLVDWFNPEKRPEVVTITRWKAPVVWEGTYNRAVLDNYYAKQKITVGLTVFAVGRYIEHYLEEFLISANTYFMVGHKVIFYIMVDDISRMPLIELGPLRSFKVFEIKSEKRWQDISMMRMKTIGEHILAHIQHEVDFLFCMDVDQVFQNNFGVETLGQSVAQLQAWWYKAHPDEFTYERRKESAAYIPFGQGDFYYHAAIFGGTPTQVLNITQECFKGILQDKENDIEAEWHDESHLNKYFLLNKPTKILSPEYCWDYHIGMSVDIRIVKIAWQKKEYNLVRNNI
SMILES,Ki [1],Ki [2] [µM],Ki [3],further results
CC(=O)NC1C(Oc2ccccc2)OC(CO)C(O)C1O (stereo unspecified),–,–,Not Active,–
COC(=O)CCCCCOC1OC(CO)C(O)C(O)C1NC(C)=O (stereo unspecified),–,–,Not Active,–
CC(=O)NC1C(Oc2cccc3ccccc23)OC(CO)C(O)C1O (stereo unspecified),Not Active,22,–,–
CC(=O)NC1C(OCc2ccccc2)OC(CO)C(N)C1O (stereo unspecified),–,850,–,–
CO[C@@H]1O[C@@H](CO)[C@H](O)[C@H](O[C@@H]2O[C@@H](CS)[C@@H](O)[C@H](O)[C@@H]2NC(C)=O)[C@@H]1O,–,1000,–,–
COC1OC(CO)C(OC2OC(CO)C(O)C(N)C2O)C(O)C1NC(C)=O (stereo unspecified),–,–,–,Ki [5]: 104 µM

# Second part, led by results:
Ki [1],Ki [2] [µM],Ki [3],SMILES,further results
Not Active,7.6,–,CC(=O)NC1C(Oc2ccc3cc(Br)ccc3c2)OC(CO)C(O)C1O (stereo unspecified),–
Not Active,9.5,–,CC(=O)NC1C(Oc2ccc3ccccc3c2)OC(CO)C(O)C1O (stereo unspecified),–
–,–,Not Active,OC[C@@H]1O[C@@H](Oc2ccc3cc(Br)ccc3c2)[C@@H](O)[C@@H](O)[C@H]1O,–
–,–,Not Active,CC(=O)N[C@@H]1[C@H](Oc2ccc3cc(Br)ccc3c2)O[C@@H](CO)[C@@H](O[C@@H]2O[C@@H](CO)[C@H](O)[C@H](O)[C@@H]2O)[C@@H]1O,Ki [4]: 9.2 µM
Not Active,3.5,–,COc1ccc2cc(OC3OC(CO)C(O)C(O)C3NC(C)=O)ccc2c1 (stereo unspecified),–
